The test system of the test is MDA-MB-231 cells. In words: AlamarBlue Cell Viability Assay. The test is classed as cell-based, human. Conditions: MDA-MB-231, various concentrations, 24, 48 and 72 hours. For orientation: The colour change of resazurin is a common sign of viable cells or microbes.

These results are taken from patent publication US20200023073A1, “A NEW DRUG DELIVERY SYSTEM FOR TREATMENT OF DISEASE” (SINTEF TTO AS, priority 2016, published 2020).

Procedure: The cytotoxic effect of empty PBCA NPs, PBCA NPs with encapsulated cabazitaxel as well as free cabazitaxel was studied on breast cancer cells (MDA-MB-231 cells=human epithelial, mammary adenocarcinoma cell line). AlamarBlueR Cell Viability Assay was used to evaluate cell viability. Cells were seeded in density 5000 cells/200 μl medium for each well. After 3 days old medium was removed from wells and both encapsulated cabazitaxel and free cabazitaxel was diluted in medium and added to the well. Concentration of NPs was ranged from 0.1 ng/ml to 1000 ng/ml. Concentrations of free cabazitaxel was chosen to match the concentrations of cabazitaxel in NPs. Control wells contained cells in growth medium.
The well plates were incubated for 24, 48 and 72 hours at 37° C. and 5% CO2, before the medium was removed from the well followed by 3 times washing with fresh growth medium. Growth medium containing 10% of alamar Blue assay was added into each well and the plates incubated for another 3 hours at 37° C. and 5% CO2, and the fluorescence intensity measured by microplate reader (excitation/emission at 550/590 nm).

`CO[C@H]1C(=O)[C@]2(C)[C@@H](OC)C[C@H]3OC[C@@]3(OC(C)=O)[C@H]2[C@H](OC(=O)c2ccccc2)[C@]2(O)C[C@H](OC(=O)[C@H](O)[C@@H](NC(=O)OC(C)(C)C)c3ccccc3)C(C)=C1C2(C)C` [free cabazitaxel, cabazitaxel]: the “response of cell viability to treatment” value is “dose-responsive manner”.
